# Test results published in article PMC4936967 (Molecular cancer therapeutics, 2016).
# Assays:
# GSK3α = GSK3α (Homo sapiens, UniProt P49840); experiment: radioactive […]-ATP in vitro kinase assay, 10-dose IC50, […] ATP; type: biochemical
# GSK3β = GSK3β (Homo sapiens, UniProt P49841); experiment: as above; type: biochemical
# Sequence of GSK3β (P49841 whole entry): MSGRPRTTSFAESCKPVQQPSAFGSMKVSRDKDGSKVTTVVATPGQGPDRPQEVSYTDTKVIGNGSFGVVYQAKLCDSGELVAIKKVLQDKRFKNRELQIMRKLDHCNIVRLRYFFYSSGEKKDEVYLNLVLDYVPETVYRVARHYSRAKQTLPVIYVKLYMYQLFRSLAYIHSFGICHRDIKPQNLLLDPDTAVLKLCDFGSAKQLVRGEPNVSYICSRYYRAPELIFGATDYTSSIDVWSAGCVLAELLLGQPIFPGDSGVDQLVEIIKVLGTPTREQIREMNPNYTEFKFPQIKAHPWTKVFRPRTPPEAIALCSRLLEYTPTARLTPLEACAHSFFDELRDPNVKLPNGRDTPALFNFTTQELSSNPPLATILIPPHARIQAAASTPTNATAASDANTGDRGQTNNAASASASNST
# Sequence of GSK3α (P49840 2-483): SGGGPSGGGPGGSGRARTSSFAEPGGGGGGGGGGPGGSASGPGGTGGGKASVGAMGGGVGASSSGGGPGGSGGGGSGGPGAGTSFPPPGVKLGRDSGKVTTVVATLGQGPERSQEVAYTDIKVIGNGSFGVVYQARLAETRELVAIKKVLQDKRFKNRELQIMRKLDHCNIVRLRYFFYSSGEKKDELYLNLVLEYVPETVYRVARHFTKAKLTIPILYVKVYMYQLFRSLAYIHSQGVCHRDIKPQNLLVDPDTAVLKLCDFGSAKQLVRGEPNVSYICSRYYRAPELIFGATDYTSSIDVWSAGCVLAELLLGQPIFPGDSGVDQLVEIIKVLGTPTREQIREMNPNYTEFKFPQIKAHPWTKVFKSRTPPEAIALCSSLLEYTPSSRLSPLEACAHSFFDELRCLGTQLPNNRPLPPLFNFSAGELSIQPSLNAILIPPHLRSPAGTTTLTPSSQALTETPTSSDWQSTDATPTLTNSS
substance,measurement,setting,value
GS87,IC50,GSK3α,0.415 µM
same,IC50,GSK3β,0.521 µM
